Test results as given in ChEMBL document CHEMBL4732222, “Discovery of novel Hsp90 C-terminal domain inhibitors that disrupt co-chaperone binding” (Bioorg Med Chem Lett, 2021).
pIC50, pKd: −log10 of the molar value.

Assays:
[1] = biological target: T1, Heat shock protein HSP90 (Homo sapiens, UniProt P07900+P08238); assay: Binding affinity to recombinant human N-terminal GST-tagged HSP90-CTD assessed as induction of fluorescence quenching at 1 mM by fluorescence spectroscopic analysis relative to control; assay type: protein assay
[2] = organism: Homo sapiens; assay: Inhibition of recombinant biotin-labelled HSP90/GST-labelled PPID interaction (unknown origin) at 500 uM by Alphascreen assay relative to control
[3] = biological target: T1, Heat shock protein HSP90; assay: Binding affinity to recombinant human N-terminal GST-tagged HSP90-CTD by fluorescence spectroscopic analysis; assay type: protein assay
[4] = Binding affinity to GST (unknown origin) by fluorescence spectroscopic analysis; assay type: ADME, Homo sapiens
[5] = Inhibition of recombinant biotin-labelled HSP90/GST-labelled PPID interaction (unknown origin) by Alphascreen assay; set-up: species or system Homo sapiens

Row | Structure (SMILES) | Activity [1] [%] | inhibition [2] [%] | also measured
1 | COc1ccc2[nH]c3c(c2c1)CCNC3c1cccc(O)c1 (centres undefined) | – | > 60 | –
2 | CCOC(=O)c1cnc2ccc(OC)cc2c1Nc1ccccc1C(=O)O | > 30 | – | –
3 | Cc1cc2oc(=O)cc(C)c2cc1NC(=O)CCCCl | – | > 60 | –
4 | COc1ccc(C(=O)Nc2ccccc2C(=O)N[C@H](C(=O)O)C(C)C)cc1 | > 30 | – | –
5 | NC(Cc1c[nH]c2ccc(OCc3ccccc3)cc12)C(=O)O (centres undefined) | > 30 | > 60 | Kd [3]: 28 µM; pKd [4]: 4.08; pIC50 [5]: 3.66

Continued, in another order:

Row | Activity [1] [%] | inhibition [2] [%] | Structure (SMILES) | also measured
6 | > 30 | – | COc1ccc(C(=O)Nc2ccccc2C(=O)NCCC(=O)O)cc1 | –
7 | – | > 60 | O=C(O)C1Cc2c([nH]c3ccccc23)C(c2c(O)ccc3ccccc23)N1 (centres undefined) | –
8 | > 30 | > 60 | Cc1nc(CC(=O)c2ccc(O)c(O)c2O)cs1 | Kd [3]: 102 µM; pKd [4]: 3.51; pIC50 [5]: 4.46
9 | > 30 | – | CC(C)CCn1c(NCCO)nc2c1c(=O)[nH]c(=O)n2C | –
10 | – | > 60 | Cc1cc(O)c2c(=O)c(-c3csc(C)n3)coc2c1 | –
11 | – | > 60 | CCCCC(NC/C(=C(/C)O)c1cc2c(c(=O)o1)CCCC2)C(=O)O (centres undefined) | –
